Data on 14 molecules can be found in PubChem BioAssay AID220 (DTP/NCI, 2004).

The test system of the assay is CD8F1 mice, subcutaneous mammary adenocarcinoma, T/C%. The experiment in a line: NCI In Vivo Anticancer Drug Screen. Data for tumor model Mammary Adenocarcinoma CD8F1 (subcutaneous) in CD8F1. To be noted: higher = larger tumour. The method, boiled down: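 Mice carrying transplanted tumors received test compound, and survival or tumor size was recorded. Each value is the treated-group measurement divided by the corresponding measurement in vehicle-dosed controls.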

[1] abbreviates: endpoint: median tumor weight change, dose: 6.25 mg/kg/injection, schedule: Q01DX001 (ip), vehicle: suspension in saline.
Setting [2] is: endpoint: median tumor weight change, dose: 12.5 mg/kg/injection, schedule: Q01DX001 (ip), vehicle: suspension in saline.
Setting [3] is: endpoint: median tumor weight (est.), dose: 50.0 mg/kg/injection, schedule: Q07DX005 (ip), vehicle: saline with Tween-80.
Setting [4] is: endpoint: median tumor weight (est.), dose: 100.0 mg/kg/injection, schedule: Q07DX005 (ip), vehicle: saline with Tween-80.
The mark [5] stands for this setting: endpoint: median tumor weight (est.), dose: 200.0 mg/kg/injection, schedule: Q07DX005 (ip), vehicle: saline with Tween-80.
Setting [6] is: endpoint: median tumor weight (est.), dose: 12.5 mg/kg/injection, schedule: Q07DX005 (ip), vehicle: saline with Tween-80.
[7] abbreviates: endpoint: median tumor weight (est.), dose: 25.0 mg/kg/injection, schedule: Q07DX005 (ip), vehicle: saline with Tween-80.
Where [8] appears, read: endpoint: median tumor weight (est.), dose: 400.0 mg/kg/injection, schedule: Q07DX005 (ip), vehicle: saline with Tween-80.
Setting [9] is: endpoint: median tumor weight (est.), dose: 6.25 mg/kg/injection, schedule: Q07DX005 (ip), vehicle: Klucel (hydroxypropylcellulose) (HPC).
The mark [10] stands for this setting: endpoint: median tumor weight (est.), dose: 25.0 mg/kg/injection, schedule: Q07DX005 (ip), vehicle: Klucel (hydroxypropylcellulose) (HPC).
The mark [11] stands for this setting: endpoint: median tumor weight (est.), dose: 50.0 mg/kg/injection, schedule: Q07DX005 (ip), vehicle: Klucel (hydroxypropylcellulose) (HPC).
Where [12] appears, read: endpoint: median tumor weight (est.), dose: 100.0 mg/kg/injection, schedule: Q07DX005 (ip), vehicle: Klucel (hydroxypropylcellulose) (HPC).

Several values for one entry are separate records, joined by “and”; a condition that tells them apart may be missing. Equal values may be shown once. Records with an inconclusive call do not appear.

`[Cl][Pt+2][Cl].[NH-]C1CCC1.[NH2-]`: the T/C under setting [1] was 96 % of control and the T/C under setting [2] is 99 % of control.

For the molecule `CN(C)P(=O)(Oc1ccccc1)N(C)C`, the T/C (endpoint: median tumor weight change, dose: 62.5 mg/kg/injection, schedule: Q01DX001 (ip), vehicle: saline with Tween-80) is 86 % of control; the T/C (endpoint: median tumor weight change, dose: 125.0 mg/kg/injection, schedule: Q01DX001 (ip), vehicle: saline with Tween-80) was 63 % of control; the T/C (endpoint: median tumor weight change, dose: 500.0 mg/kg/injection, schedule: Q01DX001 (ip), vehicle: saline with Tween-80) is 94 % of control.

For the molecule `CC(=O)NC(Cc1ccc(F)cc1)C(=O)O` (centres undefined), the T/C runs as follows: under setting [3], 117 % of control; under setting [4], 80 % of control; under setting [5], 68 % of control; (endpoint: median tumor weight (est.), dose: 800.0 mg/kg/injection, schedule: Q07DX005 (ip), vehicle: saline with Tween-80) 153 % of control.

In the case of `C[Si](C)(C)n1nnn(-c2ccccc2)c1=O`, the T/C was 100 % of control (endpoint: mean tumor weight, dose: 25.0 mg/kg/injection, schedule: Q07DX006 (ip), vehicle: saline with Tween-80); 164 % of control (endpoint: mean tumor weight, dose: 50.0 mg/kg/injection, schedule: Q07DX006 (ip), vehicle: saline with Tween-80); 102 % of control (endpoint: mean tumor weight, dose: 400.0 mg/kg/injection, schedule: Q07DX006 (ip), vehicle: saline with Tween-80); 79 % of control under setting [6]; 65 % of control under setting [7]; 97 % of control under setting [3]. For the same molecule, the T/C under setting [5] is 77 % of control and the T/C under setting [8] was 87 % of control.

Turning to `COc1cccc2c1C(=O)c1c(O)c3c(c(O)c1C2=O)C[C@@](O)(C(=O)CO)C[C@@H]3OC1CC(N(C)C)C(O)C(C)O1` (some centres undefined), the T/C (endpoint: median tumor weight (est.), dose: 2.67 mg/kg/injection, schedule: Q07DX005 (ip), vehicle: water) was 88 % of control.

`S=c1nc[nH]c2nc[nH]c12`: the T/C (endpoint: mean tumor weight (est.), dose: 135.0 mg/kg/injection, schedule: Q07DX005 (ip), vehicle: sodium bicarbonate) is 42 % of control; the T/C (endpoint: mean tumor weight, dose: 15.0 mg/kg/injection, schedule: Q01DX009 (ip), vehicle: saline) is 16 % of control; the T/C (endpoint: mean tumor weight, dose: 30.0 mg/kg/injection, schedule: Q01DX009 (ip), vehicle: saline) was 5 % of control; the T/C (endpoint: mean tumor weight, dose: 35.0 mg/kg/injection, schedule: Q07DX007 (ip), vehicle: saline) was 98 % of control; the T/C (endpoint: mean tumor weight, dose: 60.0 mg/kg/injection, schedule: Q01DX009 (ip), vehicle: saline) was 14 % of control; the T/C (endpoint: mean tumor weight, dose: 67.5 mg/kg/injection, schedule: Q07DX005 (ip), vehicle: saline) is 57 % of control. Also, the T/C is 49 % of control (endpoint: mean tumor weight, dose: 67.5 mg/kg/injection, schedule: Q07DX006 (ip), vehicle: sodium bicarbonate); 81 % of control (endpoint: mean tumor weight, dose: 67.5 mg/kg/injection, schedule: Q07DX007 (ip), vehicle: saline); 37 % of control (endpoint: mean tumor weight, dose: 135.0 mg/kg/injection, schedule: Q07DX005 (ip), vehicle: saline); 73 % of control (endpoint: median tumor weight (est.), dose: 4.0 mg/kg/injection, schedule: Q07DX005 (ip), vehicle: saline); 78 % of control under setting [9]; 78 % of control (endpoint: median tumor weight (est.), dose: 8.0 mg/kg/injection, schedule: Q07DX005 (ip), vehicle: saline). Besides, the T/C runs as follows: (endpoint: median tumor weight (est.), dose: 16.0 mg/kg/injection, schedule: Q07DX005 (ip), vehicle: saline) 350 % of control; under setting [10], 80 % of control; (endpoint: median tumor weight (est.), dose: 32.0 mg/kg/injection, schedule: Q07DX005 (ip), vehicle: saline) 78 % of control; under setting [11], 48 % of control; (endpoint: median tumor weight (est.), dose: 64.0 mg/kg/injection, schedule: Q07DX005 (ip), vehicle: saline) 101 % of control; under setting [12], 17 % of control. Moreover, the T/C (endpoint: median tumor weight (est.), dose: 128.0 mg/kg/injection, schedule: Q07DX005 (ip), vehicle: saline) was 28 % of control.

For `Cc1cc2nc3[nH]c4ccccc4c3nc2cc1C`, the T/C reads like this: (endpoint: median tumor weight (est.), dose: 12.5 mg/kg/injection, schedule: Q07DX005 (ip), vehicle: suspension in saline) 88 % of control; (endpoint: median tumor weight (est.), dose: 25.0 mg/kg/injection, schedule: Q07DX005 (ip), vehicle: suspension in saline) 52 % of control; (endpoint: median tumor weight (est.), dose: 50.0 mg/kg/injection, schedule: Q07DX005 (ip), vehicle: suspension in saline) 73 % of control; (endpoint: median tumor weight (est.), dose: 100.0 mg/kg/injection, schedule: Q07DX005 (ip), vehicle: suspension in saline) 81 % of control; (endpoint: median tumor weight (est.), dose: 200.0 mg/kg/injection, schedule: Q07DX005 (ip), vehicle: suspension in saline) 88 % of control; (endpoint: median tumor weight (est.), dose: 400.0 mg/kg/injection, schedule: Q07DX005 (ip), vehicle: suspension in saline) 100 % of control.

With `O=NN(CCCl)C(=O)NC1CCC(=O)NC1=O` (centres undefined), the T/C reads like this: (endpoint: median tumor weight (est.), dose: 4.0 mg/kg/injection, schedule: Q07DX005 (ip), vehicle: saline with Tween-80) 49 % of control; (endpoint: median tumor weight (est.), dose: 8.0 mg/kg/injection, schedule: Q07DX005 (ip), vehicle: saline with Tween-80) 24 % of control; (endpoint: median tumor weight (est.), dose: 13.0 mg/kg/injection, schedule: Q07DX005 (ip), vehicle: saline with Tween-80) 12 % of control; (endpoint: median tumor weight (est.), dose: 20.0 mg/kg/injection, schedule: Q07DX005 (ip), vehicle: saline with Tween-80) 6 % of control.

In the case of `O=P1(NCCCl)OCCCN1CCCl` (centres undefined), the T/C reads like this: (endpoint: median tumor weight (est.), dose: 25.0 mg/kg/injection, schedule: Q07DX005 (ip), vehicle: saline) 26 % of control and 29 % of control; (endpoint: median tumor weight (est.), dose: 50.0 mg/kg/injection, schedule: Q07DX005 (ip), vehicle: saline) 11 % of control and 12 % of control; (endpoint: median tumor weight (est.), dose: 100.0 mg/kg/injection, schedule: Q07DX005 (ip), vehicle: saline) 6 % of control.

For the molecule `COc1ccc(OC)c(/C=C/c2ccnc3ccccc23)c1`, the T/C under setting [6] is 77 % of control; the T/C under setting [7] was 93 % of control; the T/C under setting [3] is 78 % of control; the T/C under setting [4] is 67 % of control; the T/C under setting [5] was 86 % of control; the T/C under setting [8] was 71 % of control.

For the molecule `NC(=S)c1cn(C2OC(CO)C(O)C2O)c2ncnc(N)c12` (centres undefined), the T/C (endpoint: median tumor weight change, dose: 3.12 mg/kg/injection, schedule: Q01DX001 (ip), vehicle: suspension in saline) is 96 % of control; the T/C under setting [1] was 68 % of control; the T/C under setting [2] was 76 % of control.

As for `N=[N+]=CC(=O)CCC(NC(=O)C(CCC(=O)C=[N+]=N)NC(=O)CCC(N)C(=O)O)C(=O)O` (centres undefined), the T/C is, setting by setting: (endpoint: median tumor weight (est.), dose: 3.12 mg/kg/injection, schedule: Q07DX004 (ip), vehicle: clinical formulation) 34 % of control; (endpoint: median tumor weight (est.), dose: 6.25 mg/kg/injection, schedule: Q07DX004 (ip), vehicle: clinical formulation) 123 % of control; (endpoint: median tumor weight (est.), dose: 12.5 mg/kg/injection, schedule: Q07DX004 (ip), vehicle: clinical formulation) 50 % of control; (endpoint: median tumor weight (est.), dose: 25.0 mg/kg/injection, schedule: Q07DX004 (ip), vehicle: clinical formulation) 22 % of control; (endpoint: median tumor weight (est.), dose: 50.0 mg/kg/injection, schedule: Q07DX004 (ip), vehicle: clinical formulation) 15 % of control; (endpoint: median tumor weight (est.), dose: 100.0 mg/kg/injection, schedule: Q07DX004 (ip), vehicle: clinical formulation) 12 % of control.

Regarding `O=[N+]([O-])O.O=[N+]([O-])O.[NH-]C1CCCCC1[NH-].[Pt+2]` (centres undefined), the T/C by setting is: (endpoint: median tumor weight (est.), dose: 0.5 mg/kg/injection, schedule: Q07DX005 (ip), vehicle: dextrose) 46 % of control and 52 % of control; (endpoint: median tumor weight (est.), dose: 2.0 mg/kg/injection, schedule: Q07DX005 (ip), vehicle: dextrose) 50 % of control; (endpoint: median tumor weight (est.), dose: 4.0 mg/kg/injection, schedule: Q07DX005 (ip), vehicle: dextrose) 29 % of control and 38 % of control; (endpoint: median tumor weight (est.), dose: 8.0 mg/kg/injection, schedule: Q07DX005 (ip), vehicle: dextrose) 12 % of control and 29 % of control.

For `O=C1C(=O)c2ccccc2C(O)=C1CC=C(Cl)Cl`, the T/C reads like this: under setting [9], 112 % of control; (endpoint: median tumor weight (est.), dose: 12.5 mg/kg/injection, schedule: Q07DX005 (ip), vehicle: Klucel (hydroxypropylcellulose) (HPC)) 52 % of control; under setting [10], 99 % of control; under setting [11], 93 % of control; under setting [12], 61 % of control.
